Assay in all cases: relative viability (nuclei count vs DMSO), 5 days (fraction); higher = more cells survive
Compound in one test: Cc1ccc(F)c(NC(=O)Nc2ccc(-c3cccc4[nH]nc(N)c34)cc2)c1 [Linifanib]
In short, it runs like this:
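Following overnight incubation at 37 °C, lung cancer cell lines in 1536-well plates were pinned with five library-drug doses (not always all listed) in √10 steps on vehicle-anchored plates. The cells then spent 5 days without medium change before a combined fix, permeabilisation and Hoechst stain, 4× imaging and MetaXpress nuclear counts. Viability is the treated-to-vehicle ratio of nuclei, taken as the median across plates. Only plates with control CV below 25% and at least one doubling passed.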

Compound in the test “Linifanib + Trametinib”: Cc1ccc(F)c(NC(=O)Nc2ccc(-c3cccc4[nH]nc(N)c34)cc2)c1 [Linifanib] + CC(=O)Nc1cccc(-n2c(=O)n(C3CC3)c(=O)c3c(Nc4ccc(I)cc4F)n(C)c(=O)c(C)c32)c1 [Trametinib] (partner 0.02 µM)
In short, it runs like this: (§1)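 For relative viability, nuclei counts in treated wells were divided by those in vehicle wells. Lung cancer cell lines had been pin-tool dosed in 1536-well plates the day after seeding and cultured for 5 days, then fixed and stained in one step (final 0.05% Triton X-100, 1% formaldehyde, 1 ug/ml Hoechst) and imaged at 4×. Doses were one drug alone or a fixed anchor-drug dose plus five library-drug doses (not always all listed) in √10 steps, and values are duplicate-plate medians.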

Compound in the test “Linifanib + Bortezomib”: Cc1ccc(F)c(NC(=O)Nc2ccc(-c3cccc4[nH]nc(N)c34)cc2)c1 [Linifanib] + CC(C)C[C@H](NC(=O)[C@H](Cc1ccccc1)NC(=O)c1cnccn1)B(O)O [Bortezomib] (partner 0.002 µM)
The method in brief:
as §1

Compound in the test “Linifanib + Phenformin”: Cc1ccc(F)c(NC(=O)Nc2ccc(-c3cccc4[nH]nc(N)c34)cc2)c1 [Linifanib] + N=C(N)NC(=N)NCCc1ccccc1 [Phenformin] (partner 250 µM)
The method in brief:
as §1

Compound in the test “Linifanib + Decitabine”: Cc1ccc(F)c(NC(=O)Nc2ccc(-c3cccc4[nH]nc(N)c34)cc2)c1 [Linifanib] + Nc1ncn([C@H]2C[C@H](O)[C@@H](CO)O2)c(=O)n1 [Decitabine] (partner 2 µM)
In short, it runs like this: as §1

Compound in the test “Linifanib + Vorinostat”: Cc1ccc(F)c(NC(=O)Nc2ccc(-c3cccc4[nH]nc(N)c34)cc2)c1 [Linifanib] + O=C(CCCCCCC(=O)Nc1ccccc1)NO [Vorinostat] (partner 1 µM)
In short, it runs like this:
as §1

On to NCI-H1355, for which the relative viability with Linifanib (0.03162 µM) came out at 1.03; with Linifanib (0.1 µM), 1.07; with Linifanib (0.3162 µM), 0.99; with Linifanib + Trametinib (first compound 0.03162 µM), 0.407; with Linifanib + Trametinib (first compound 0.1 µM) it was 0.497; with Linifanib + Trametinib (first compound 0.3162 µM), 0.404. The relative viability in the test with Linifanib + Bortezomib (first compound 0.03162 µM) came out at 1.23; with Linifanib + Bortezomib (first compound 0.1 µM) it was 1.26; with Linifanib + Bortezomib (first compound 0.3162 µM), 1.26; with Linifanib + Phenformin (first compound 0.03162 µM) it was 0.449; with Linifanib + Phenformin (first compound 0.1 µM), 0.496; in the test with Linifanib + Phenformin (first compound 0.3162 µM), 0.425. Also, the relative viability with Linifanib + Decitabine (first compound 0.03162 µM) was determined as 0.352; with Linifanib + Decitabine (first compound 0.1 µM), 0.387; with Linifanib + Decitabine (first compound 0.3162 µM) it was 0.338; with Linifanib + Vorinostat (first compound 0.03162 µM), 0.647; in the test with Linifanib + Vorinostat (first compound 0.1 µM) it was 0.68; in the test with Linifanib + Vorinostat (first compound 0.3162 µM), 0.682.

As for LU99A, the relative viability was found to be 1.02 with Linifanib (0.03162 µM); 1.03 in the test with Linifanib (0.1 µM); 0.853 with Linifanib (0.3162 µM); 0.558 in the test with Linifanib + Trametinib (first compound 0.03162 µM); 0.582 with Linifanib + Trametinib (first compound 0.1 µM); 0.587 in the test with Linifanib + Trametinib (first compound 0.3162 µM). Moreover, the relative viability with Linifanib + Bortezomib (first compound 0.03162 µM) turned out to be 1.13; with Linifanib + Bortezomib (first compound 0.1 µM), 1.16; with Linifanib + Bortezomib (first compound 0.3162 µM), 1.21; with Linifanib + Phenformin (first compound 0.03162 µM) it was 0.878; in the test with Linifanib + Phenformin (first compound 0.1 µM), 0.892; with Linifanib + Phenformin (first compound 0.3162 µM) it was 0.793. The relative viability with Linifanib + Decitabine (first compound 0.03162 µM) came out at 0.932; in the test with Linifanib + Decitabine (first compound 0.1 µM), 1.02; with Linifanib + Decitabine (first compound 0.3162 µM), 0.824; in the test with Linifanib + Vorinostat (first compound 0.03162 µM), 0.497; in the test with Linifanib + Vorinostat (first compound 0.1 µM), 0.43; in the test with Linifanib + Vorinostat (first compound 0.3162 µM), 0.505.

These data come from the supplement of paper PMC10307832.
